Laboratory results from ChEMBL document CHEMBL3045922, “Synthesis of 6-(3-substituted-4H-1,2,4-triazol-4-yl)-2-phenylbenzo[d]oxazoles as potential anticonvulsant agents” (Med Chem Res, 2010).
The source made the active and inactive calls. The rule behind the calls is not given here.

Columns and labels:
[1] = test system: Mus musculus; test: Anticonvulsant activity in Mus musculus Kunming (mouse) assessed as protection against subcutaneous pentylenetetrazole-induced seizures at 100 mg/kg, ip at 0.5 hr; format: functional, organism-based; design: dose 100 mg/kg
[2] = test system: Mus musculus; test: Anticonvulsant activity in Mus musculus Kunming (mouse) assessed as protection against maximal electroshock-induced seizures at 100 mg/kg, ip at 4 hr; format: functional, organism-based; design: dose 100 mg/kg
[3] = test system: Mus musculus; test: Anticonvulsant activity in Mus musculus Kunming (mouse) assessed as protection against subcutaneous pentylenetetrazole-induced seizures at 100 mg/kg, ip at 4 hr; format: functional, organism-based; design: dose 100 mg/kg
[4] = test system: Mus musculus; test: Anticonvulsant activity in Mus musculus Kunming (mouse) assessed as protection against maximal electroshock-induced seizures at 100 mg/kg, ip at 0.5 hr; format: functional, organism-based; design: dose 100 mg/kg
[5] = test system: Mus musculus; test: Neurotoxicity in Mus musculus Kunming (mouse) assessed as minimal motor impairment at 300 mg/kg, ip at 4 hr by rotarod test; format: toxicity, organism-based; design: dose 300 mg/kg, route intraperitoneal; settings: in vivo
[6] = test system: Mus musculus; test: Neurotoxicity in Mus musculus Kunming (mouse) assessed as minimal motor impairment at 300 mg/kg, ip at 0.5 hr by rotarod test; format: toxicity, organism-based; design: dose 300 mg/kg, route intraperitoneal; settings: in vivo
[7] = organism: Mus musculus; test: Protective index, ratio of TD50 for Mus musculus Kunming (mouse) to ED50 for inhibition of maximal electroshock-induced seizure in Mus musculus Kunming (mouse); format: functional
[8] = test system: Mus musculus; test: Anticonvulsant activity in ip dosed Mus musculus Kunming (mouse) assessed as protection against subcutaneous pentylenetetrazole-induced seizures at 0.5 hr; format: functional
[9] = test system: Mus musculus; test: Protective index, ratio of TD50 for Mus musculus Kunming (mouse) to ED50 for inhibition of maximal subcutaneous pentylenetetrazole-induced seizure in Mus musculus Kunming (mouse); format: functional
[10] = Neurotoxicity in ip dosed Mus musculus Kunming (mouse) assessed as minimal motor impairment at 0.5 hr by rotarod test; format: toxicity, organism-based; settings: in vivo
[11] = test system: Mus musculus; test: Anticonvulsant activity in ip dosed Mus musculus Kunming (mouse) assessed as protection against maximal electroshock-induced seizures at 0.5 hr; format: functional

Row | SMILES | Activity [1] | Activity [2] | Activity [3] | Activity [4] | Activity [5] | Activity [6] | Ratio TD50/ED50 [7] | ED50 [8] [mg/kg] | Ratio TD50/ED50 [9] | TD50 at 0.5 h [10] [mg/kg] | ED50 [11] [mg/kg]
1 | O=[N+]([O-])c1ccc(-c2nncn2-c2ccc3nc(-c4ccccc4)oc3c2)cc1 | inactive | inactive | inactive | inactive | – | – | – | – | – | – | –
2 | Fc1cccc(-c2nncn2-c2ccc3nc(-c4ccccc4)oc3c2)c1 | inactive | inactive | inactive | – | Non-toxic | Non-toxic | – | – | – | – | –
3 | CCCCCc1nncn1-c1ccc2nc(-c3ccccc3)oc2c1 | inactive | inactive | inactive | inactive | – | – | – | – | – | – | –
4 | NC(=O)N1c2ccccc2C=Cc2ccccc21 [CARBAMAZEPINE] | – | – | – | – | – | – | 6.4 | > 100 | <1.3 | – | –
5 | Clc1cccc(-c2nncn2-c2ccc3nc(-c4ccccc4)oc3c2)c1 | – | inactive | inactive | – | Non-toxic | Toxic | – | – | – | – | –
6 | Cc1nncn1-c1ccc2nc(-c3ccccc3)oc2c1 | – | Active | inactive | Active | – | Toxic | 6.3 | 75.6 | 2.3 | 167 | 26.5
7 | CCCCCCCCCc1nncn1-c1ccc2nc(-c3ccccc3)oc2c1 | – | inactive | inactive | inactive | Toxic | Toxic | – | – | – | – | –
8 | CCCCc1nncn1-c1ccc2nc(-c3ccccc3)oc2c1 | – | inactive | inactive | – | Non-toxic | Non-toxic | – | – | – | – | –
9 | Fc1ccc(-c2nncn2-c2ccc3nc(-c4ccccc4)oc3c2)cc1 | inactive | inactive | inactive | – | Non-toxic | Non-toxic | – | – | – | – | –
10 | Cc1ccc(-c2nncn2-c2ccc3nc(-c4ccccc4)oc3c2)cc1 | – | inactive | inactive | – | – | Toxic | – | – | – | – | –
11 | COc1ccc(-c2nncn2-c2ccc3nc(-c4ccccc4)oc3c2)cc1 | inactive | inactive | inactive | – | Non-toxic | Non-toxic | – | – | – | – | –
12 | CCCc1nncn1-c1ccc2nc(-c3ccccc3)oc2c1 | – | inactive | inactive | – | Non-toxic | – | – | – | – | – | –
13 | c1ccc(-c2nc3ccc(-n4cnnc4)cc3o2)cc1 | inactive | Active | inactive | Active | Non-toxic | – | 9.7 | 69.8 | 4.1 | 285 | 29.5
14 | COc1cccc(-c2nncn2-c2ccc3nc(-c4ccccc4)oc3c2)c1 | inactive | inactive | inactive | Active | Non-toxic | – | 3.7 | – | – | 249 | 66.5
15 | CCc1nncn1-c1ccc2nc(-c3ccccc3)oc2c1 | – | – | inactive | – | Non-toxic | – | – | – | – | – | –
16 | Clc1ccc(-c2nncn2-c2ccc3nc(-c4ccccc4)oc3c2)cc1 | inactive | inactive | inactive | – | Non-toxic | Non-toxic | – | – | – | – | –
17 | c1ccc(-c2nc3ccc(-n4cnnc4-c4ccccc4)cc3o2)cc1 | – | – | inactive | Active | – | – | 4.1 | – | – | 266 | 65.4
18 | Clc1ccccc1-c1nncn1-c1ccc2nc(-c3ccccc3)oc2c1 | – | inactive | inactive | inactive | Non-toxic | Non-toxic | – | – | – | – | –
